In US4740233A, “Substituted 1,2,4-triazolo[1,5-a]-pyrimidine-2-sulfonamides and compositions and methods of controlling undesired vegetation and suppressing the nitrification of ammonium nitrogen in soil” (The Dow Chemical Company, priority 1986, dated 1988):

Tests used:
[1] = test system: yellow nutsedge; assay: Preemergent control of plant species; assay type: in vivo, Cyperus esculentus; settings: Cyperus, pre-emergence, 336 h; 0.25 lb/acre; read-out: percent preemergent control
In short: (§1)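 Seeds planted in good agricultural soil beds; active ingredients then applied to the bed surface as aqueous emulsion at listed rates. Beds kept two weeks in greenhouse with watering. Control scored against water-treated beds.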

[2] = test system: soybean; assay: Preemergent control of plant species; assay type: in vivo, Glycine max.; settings: Glycine max, pre-emergence, 336 h; 0.25 lb/acre; read-out: percent preemergent control
In short: as §1

[3] = test system: annual morning glory; assay: Preemergent control of plant species; assay type: in vivo, Ipomoea spp.; settings: Ipomoea, pre-emergence, 336 h; 0.25 lb/acre; read-out: percent preemergent control
In short: as §1

[4] = test system: wheat; assay: Preemergent control of plant species; assay type: in vivo, Triticum aestivum; settings: Triticum aestivum, pre-emergence, 336 h; 0.25 lb/acre; read-out: percent preemergent control
In short: as §1

[5] = test system: cotton; assay: Preemergent control of plant species; assay type: in vivo, Gossypium spp.; settings: Gossypium hirsutum, pre-emergence, 336 h; 0.25 lb/acre; read-out: percent preemergent control
In short: as §1

[6] = test system: sprangletop; assay: Control of aquatic plant species (paddy water); assay type: in vivo, Leptochloa filiformis; settings: Leptochloa filiformis, 216 h, nine days, read-out: Percent control; for pest or weed control at 31 g/ha: 0.031 Kg/Ha
In short: (§2)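 Percent control is scored nine days after treatment. Plants go into about 2 inches of soil at the 1-2 inch stage and are flooded to about 1 inch, then test compound in acetone concentrate is injected into the standing water at a volume chosen for the desired concentration.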

[7] = test system: corn; assay: Preemergent control of plant species; assay type: in vivo, Zea mays; settings: Zea mays, pre-emergence, 336 h; 0.25 lb/acre; read-out: percent preemergent control
In short: as §1

[8] = test system: rice; assay: Control of aquatic plant species (paddy water); assay type: in vivo, Oryza sativa; settings: Oryza sativa, 216 h, nine days, read-out: Percent control; for pest or weed control at 31 g/ha: 0.031 Kg/Ha
In short: as §2

[9] = test system: velvetleaf; assay: Preemergent control of plant species; assay type: in vivo, Abutilon theophrasti; settings: Abutilon theophrasti, pre-emergence, 336 h; 0.25 lb/acre; read-out: percent preemergent control
In short: as §1

[10] = test system: yellow nutsedge; assay: Control of aquatic plant species (paddy water); assay type: in vivo, Cyperus esculentus; settings: Cyperus, 216 h, nine days, read-out: Percent control; for pest or weed control at 31 g/ha: 0.031 Kg/Ha
In short: as §2

[11] = test system: rape; assay: Preemergent control of plant species; assay type: in vivo, Brassica napus; settings: Brassica napus, pre-emergence, 336 h; 0.25 lb/acre; read-out: percent preemergent control
In short: as §1

[12] = test system: sugar beet; assay: Preemergent control of plant species; assay type: in vivo, Beta saccharifera; settings: Beta vulgaris, pre-emergence, 336 h; 0.25 lb/acre; read-out: percent preemergent control
In short: as §1

[13] = test system: rice; assay: Preemergent control of plant species; assay type: in vivo, Oryza sativa; settings: Oryza sativa, pre-emergence, 336 h; 0.25 lb/acre; read-out: percent preemergent control
In short: as §1

[14] = test system: barnyardgrass; assay: Control of aquatic plant species (paddy water); assay type: in vivo, Echinochloa crusgalli; settings: Echinochloa crus-galli, 216 h, nine days, read-out: Percent control; for pest or weed control at 31 g/ha: 0.031 Kg/Ha
Description: In testing for such utility, the plant species to be tested were transplanted into 16 oz. containers into about 2 inches of soil when they were in the 1-2 inch stage and then flooded to a depth of about 1 inch. An acetone concentrate of the chemical to be tested was then injected into the paddy water, the volume injected being varied as desired to provide the desired concentration. Percent control was evaluated nine days after application.

[15] = test system: pigweed; assay: Preemergent control of plant species; assay type: in vivo, Amaranthus spp.; settings: Amaranthus retroflexus, pre-emergence, 336 h; 0.25 lb/acre; read-out: percent preemergent control
Description: (§3) The seeds of various species of plants were planted in beds of good agricultural soil in a greenhouse. A number of compositions of the present invention, generally in the nature of an aqueous emulsion, were applied at rates listed in the table so as to deposit a predetermined amount of active ingredients uniformly throughout the surface of the bed. Another seed bed was treated only with water to serve as a control. After treatment the seed beds were maintained for two weeks under greenhouse conditions conducive for good plant growth and watered as necessary. Control refers to the reduction in growth compared to the observed results of the same untreated species.

[16] = test system: johnson grass; assay: Preemergent control of plant species; assay type: in vivo, Sorghum halepense; settings: Sorghum halepense, pre-emergence, 336 h; 0.25 lb/acre; read-out: percent preemergent control
In short: as §1

[17] = test system: wild oats; assay: Preemergent control of plant species; assay type: in vivo; settings: Avena fatua, pre-emergence, 336 h; 0.25 lb/acre; read-out: percent preemergent control
In short: as §1

[18] = test system: jimsonweed; assay: Preemergent control of plant species; assay type: in vivo, Datura stramonium; settings: Datura stramonium, pre-emergence, 336 h; 0.25 lb/acre; read-out: percent preemergent control
In short: as §1

[19] = test system: yellow foxtail; assay: Preemergent control of plant species; assay type: in vivo, Setaria lutescens; settings: Setaria, pre-emergence, 336 h; 0.25 lb/acre; read-out: percent preemergent control
In short: as §1

[20] = test system: nitrification of ammonium nitrogen; assay: Suppression of nitrification of ammonium nitrogen in soil; settings: 27° C.
In short: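 Value is % NH4-N remaining after a two-week, 27° C incubation of treated soil held at 1/3 bar tension moisture. Nitrate was measured with an ion-selective electrode after extraction with ammonium sulfate solution and 10 min shaking.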

[21] = test system: sorghum; assay: Preemergent control of plant species; assay type: in vivo, Sorghum vulgare; settings: Sorghum, pre-emergence, 336 h; 0.25 lb/acre; read-out: percent preemergent control
In short: as §1

[22] = test system: barnyardgrass; assay: Preemergent control of plant species; assay type: in vivo, Echinochloa crusgalli; settings: Echinochloa crus-galli, pre-emergence, 336 h; 0.25 lb/acre; read-out: percent preemergent control
In short: as §1

[23] = test system: crabgrass; assay: Preemergent control of plant species; assay type: in vivo, Digitaria spp.; settings: Digitaria sanguinalis, pre-emergence, 336 h; 0.25 lb/acre; read-out: percent preemergent control
Description: as §3

Compound | pest or weed control at 280.212 g/ha [1] | plant injury at 280.212 g/ha [2] | pest or weed control at 280.212 g/ha [3] | plant injury at 280.212 g/ha [4] | plant injury at 280.212 g/ha [5] | plant injury at 280.212 g/ha [7] | pest or weed control at 280.212 g/ha [9] | plant injury at 280.212 g/ha [11] | plant injury at 280.212 g/ha [12] | plant injury at 280.212 g/ha [13] | pest or weed control at 280.212 g/ha [15] | pest or weed control at 280.212 g/ha [16] | pest or weed control at 280.212 g/ha [17] | pest or weed control at 280.212 g/ha [18] | pest or weed control at 280.212 g/ha [19] | % NH4-N Remaining After 2 Weeks Incubation ([20]; 0.06 ppm) | % NH4-N Remaining After 2 Weeks Incubation ([20]; 1 ppm) | plant injury at 280.212 g/ha [21] | pest or weed control at 280.212 g/ha [22] | pest or weed control at 280.212 g/ha [23] | also measured
Cc1cc(C)n2nc(S(=O)(=O)Nc3c(Cl)cccc3Cl)nc2n1 [Compound 22, 5,7-Dimethyl-N-(2,6-dichlorophenyl)-1,2,4-triazolo[1,5-a]pyrimidine-2-sulfonamide] | 98% | 95% | 70% | 50% | 95% | 50% | 98% | 100% | 98% | 90% | 100% | 98% | 90% | 100% | 98% | 69% | 86% | 95% | 95% | 95% | pest or weed control at 250 g/ha ([6]; 0.25 Kg/Ha): 30%; pest or weed control at 250 g/ha ([8]; 0.25 Kg/Ha): 97%; pest or weed control at 250 g/ha ([10]; 0.25 Kg/Ha): 97%; pest or weed control at 250 g/ha ([14]; 0.25 Kg/Ha): 97%; % NH4-N Remaining After 2 Weeks Incubation ([20]; 0.125 ppm): 77%; % NH4-N Remaining After 2 Weeks Incubation ([20]; 0.25 ppm): 82%; % NH4-N Remaining After 2 Weeks Incubation ([20]; 0.5 ppm): 86%
Cc1nc2nc(S(=O)(=O)Nc3c(Cl)cccc3Cl)nn2c(C)c1C [Compound 111] | 93% | 10% | 20% | 0% | 20% | 35% | 80% | 95% | 90% | 65% | 50% | 75% | 0% | 95% | 30% | 22% | 69% | 65% | 15% | 90% | pest or weed control at 4000 g/ha ([6]; 4.0 Kg/Ha): 80%; pest or weed control at 4000 g/ha ([8]; 4.0 Kg/Ha): 93%; pest or weed control at 4000 g/ha ([10]; 4.0 Kg/Ha): 99%; pest or weed control at 4000 g/ha ([14]; 4.0 Kg/Ha): 99%; % NH4-N Remaining After 2 Weeks Incubation ([20]; 0.25 ppm): 60%; % NH4-N Remaining After 2 Weeks Incubation ([20]; 4 ppm): 92%
Cc1ccn2nc(S(=O)(=O)Nc3c(Cl)cccc3Cl)nc2n1 [Compound 143, 5-Methyl-N-(2,6-dichlorophenyl)-1,2,4-triazolo[1,5-a]pyrimidine-2-sulfonamide] | 100% | 70% | 90% | 50% | 100% | 95% | 97% | 95% | 100% | 97% | 100% | 100% | 50% | 100% | 97% | – | 91% | 99% | 97% | 100% | pest or weed control at 31 g/ha [6]: 0%; pest or weed control at 500 g/ha ([6]; 0.5 Kg/Ha): 97%; pest or weed control at 31 g/ha [8]: 0%; pest or weed control at 500 g/ha ([8]; 0.5 Kg/Ha): 95%; pest or weed control at 31 g/ha [10]: 93%; pest or weed control at 500 g/ha ([10]; 0.5 Kg/Ha): 97%; pest or weed control at 31 g/ha [14]: 95%; pest or weed control at 500 g/ha ([14]; 0.5 Kg/Ha): 99%; % NH4-N Remaining After 2 Weeks Incubation ([20]; 0.01 ppm): 50%; % NH4-N Remaining After 2 Weeks Incubation ([20]; 0.1 ppm): 78%; % NH4-N Remaining After 2 Weeks Incubation ([20]; 10 ppm): 100%
Cc1cc(C)n2nc(S(=O)(=O)Nc3c(F)cccc3C(=O)OC(C)C)nc2n1 [Compound 51] | 100% | 90% | 80% | 97% | 93% | 97% | 95% | 95% | 95% | 80% | 100% | 95% | 100% | 95% | 97% | 33% | 78% | 97% | 97% | 95% | pest or weed control at 31 g/ha [6]: 0%; pest or weed control at 1000 g/ha ([6]; 1.0 Kg/Ha): 70%; pest or weed control at 31 g/ha [8]: 0%; pest or weed control at 1000 g/ha ([8]; 1.0 Kg/Ha): 95%; pest or weed control at 31 g/ha [10]: 93%; pest or weed control at 1000 g/ha ([10]; 1.0 Kg/Ha): 97%; pest or weed control at 31 g/ha [14]: 35%; pest or weed control at 1000 g/ha ([14]; 1.0 Kg/Ha): 97%; % NH4-N Remaining After 2 Weeks Incubation ([20]; 0.25 ppm): 58%; % NH4-N Remaining After 2 Weeks Incubation ([20]; 4 ppm): 87%
